Values quoted from earlier work as cited in US20030119882A1, “Solid pharmaceutical composition containing torasemide” (priority 2001, published 2003).

Details: present in very fine dispersion in a pharmaceutical tablet; prior art, cf. EP 212 537 A

## Cc1cccc(Nc2ccncc2S(=O)(=O)NC(=O)NC(C)C)c1 [torasemide of the modification II, 1-isopropyl-3-[(4-m-toluidino-3-pyridyl)sulphonyl]urea]
  Rearrangement of modification II to modification I: rearranges more or less rapidly to the modification I
